From patent US12648951B2, “Methods of treating castration-resistant prostate cancer with glucocorticoid receptor antagonists, androgen deprivation therapy and anti-androgen receptor therapy” (University of Chicago, priority 2012, dated 2026)
Where two headings read alike, the source gives them in different places.

Tests used:
[1] = tested on: CWR-22RV1 (22RV1) prostate cancer cell line; assay: Cell survival of CWR-22RV1 cells grown with MDV3100, R1881, Dex, GSK650394; format: cell-based, human
Excerpt: (§1) GR Antagonist Studies. […]. SGK1-FLAG or vector was stably expressed and cellular viability, secreted PSA, and protein lysates were collected.

[2] = tested on: LAPC4 prostate cancer cell line; assay: Cell survival of LAPC4 cells grown with MDV3100, R1881, Dex, Mif, GSK650394; format: cell-based, human
Excerpt: as §1

SGK1 = assay: Expression of SGK1 in prostate cancer cell lines; format: cell-based, human; conditions: MDV3100, and addition of Dex
Excerpt: as §1

[3] = tested on: castration-resistant prostate cancer patients who have received prior docetaxel; conditions: cited from earlier work
breast cancer cell = conditions: cited from earlier work
[4] = tested on: LNCaP cells engineered to express elevated levels of AR; conditions: cited from earlier work
[5] = tested on: prostate specific antigen serum levels; conditions: after a month of taking the medicine; cited from earlier work
CRPC cell lines [6] = assay: GR expression level in CRPC cell lines; format: cell-based, human; conditions: addition of MDV3100, within 3-7 days
LAPC4 cell line = assay: GR expression following MDV3100 treatment, LAPC4; format: cell-based, human
CWR-22RV1 cell line = assay: GR expression following MDV3100 treatment, CWR-22RV1; format: cell-based, human
[7] = tested on: metastatic castration-resistant prostate cancer patients; conditions: cited from earlier work
[8] = at 9 months; cited from earlier work
advanced prostate cancer = conditions: cited from earlier work
[9] = cited from earlier work
CRPC cell lines [10] = assay: Proliferation / growth of castrate-resistant prostate cancer cell lines; format: cell-based, human
Excerpt: as §1

O=C(O)c1ccc(-c2c[nH]c3ncc(-c4ccccc4)cc23)cc1C1CCCC1 [GSK650394]
cell survival following treatment with the SGK1 inhibitor ([1]; results similar to LAPC4): impaired
% survival relative to R1881+Dex control ([2]; LAPC4, GSK650394 added to MDV3100+Dex): 19%

CNC(=O)c1ccc(N2C(=S)N(c3ccc(C#N)c(C(F)(F)F)c3)C(=O)C2(C)C)cc1F [MDV3100]
Expression of SGK1 (SGK1): reduced
lived longer than those taking placebo ([3]; AFFIRM interim analysis): approximately 5 months
median survival after progression on MDV3100 ([3]; in vivo): under 1 year
survival advantage ([3]; phase III, reported in 2012): 4-5 month
breast cancer cell growth (breast cancer cell): inhibits breast cancer cell growth
expression of androgen dependent genes PSA and TMPRSS2 [4]: down regulated
decrease in prostate specific antigen serum levels [5]: ≤ 89%
GR expression level (CRPC cell lines [6]): significantly increases
cell survival ([1]; MDV3100 with vs without Dex): 51%
reduction in cell death compared to R1881+Dex control ([2]; LAPC4): 26%
cell survival compared to R1881 control ([2]; LAPC4, MDV3100 with vs without Dex): 47%
survival under MDV3100 treatment ([2]; SGK1-Flag over-expressing LAPC4 cells): 61%
survival under MDV3100 treatment ([2]; vector control LAPC4 cells): 24%
GR expression (LAPC4 cell line): increased
GR expression (CWR-22RV1 cell line): increased
Median time to radiographic progression ([7]; chemo-naive patients): 56 weeks
patients with PSA level decreased more than 50 percent ([7]; chemo-naive patients): 40/65
patients with PSA level decreased more than 50 percent ([7]; chemotherapy-treated patients): 38/75
Median time to radiographic progression ([7]; post-chemotherapy population): 25 weeks

CCNC(=O)[C@@H]1CCCN1C(=O)[C@H](CCCNC(=N)N)NC(=O)[C@H](CC(C)C)NC(=O)[C@@H](CC(C)C)NC(=O)[C@H](Cc1ccc(O)cc1)NC(=O)[C@H](CO)NC(=O)[C@H](Cc1c[nH]c2ccccc12)NC(=O)[C@H](Cc1c[nH]cn1)NC(=O)[C@@H]1CCC(=O)N1 [leuprolide]
Overall survival [8]: 90.5%
cardiovascular toxicity (advanced prostate cancer; human, in vivo): lower incidence of cardiovascular toxicity
reducing serum testosterone to castrate levels (advanced prostate cancer; monthly depot): equivalent to 3 mg of DES

CC(C)C[C@H](NC(=O)[C@@H](Cc1c[nH]c2ccccc12)NC(=O)[C@H](Cc1ccc(O)cc1)NC(=O)[C@H](CO)NC(=O)[C@H](Cc1c[nH]c2ccccc12)NC(=O)[C@H](Cc1c[nH]cn1)NC(=O)[C@@H]1CCC(=O)N1)C(=O)N[C@@H](CCCNC(=N)N)C(=O)N1CCC[C@H]1C(=O)NCC(N)=O [triptorelin]
Overall survival [8]: 97%

CC(C)C(=O)Nc1ccc([N+](=O)[O-])c(C(F)(F)F)c1 [flutamide]
hepatic impairment ([9]; doses of 125 mg/day or less): No cases of hepatic impairment
hepatotoxicity ([9]; warnings from patients using 750 mg daily): fatal hepatotoxicity has been reported

CC#C[C@]1(O)CC[C@H]2[C@@H]3CCC4=CC(=O)CCC4=C3[C@@H](c3ccc(N(C)C)cc3)C[C@@]21C [Mif, mifepristone]
proliferation with addition of a GR inhibitor to MDV3100 under GR activation (CRPC cell lines [10]): restoring the decrease in proliferation
change in survival compared to R1881+Dex control ([2]; LAPC4, addition of Mif alone): no change in survival
